Source: patent US12428420B2, “Tricyclic heterocycles as FGFR inhibitors” (Incyte Corporation, priority 2021, dated 2025)

What was measured:
RT-112/84 cell line = assay: Luminescent Viability Assay (CellTiter-Glo); assay type: cell-based; details: Homo sapiens, RT112/84, 72 h, RT-112/84 cell line (bladder, FGFR3-TACC3); 3 days
Method: RT112 cells (cell lines and genetic profiles further detailed in Table 2) were purchased from ATCC (Manassas, VA) and maintained in RPMI, 10% FBS (Gibco/Life Technologies). To measure the effect of test compounds on the viability of cells, the cells were plated with RPMI 10% FBS (5×10^3 cells/well/in 50 μL) into black 96-well Greiner polystyrene in the presence or absence of 50 μL of a concentration range of test compounds. After 3 days, 100 μL of CellTiter-Glo Reagent (Promega) was added. Luminescence was read with a TopCount (PerkinElmer). IC50 determination was performed by fitting the curve of percent inhibition versus the log of the inhibitor concentration using the GraphPad Prism 5.0 software.

[1] = target: wild-type un-phosphorylated FGFR3 protein (Homo sapiens, UniProt P22607); assay: FGFR Enzymatic Assay (FRET peptide phosphorylation); assay type: biochemical; details: pre-incubated for 4 hours
Chain of wild-type un-phosphorylated FGFR3 protein (P22607 23-806): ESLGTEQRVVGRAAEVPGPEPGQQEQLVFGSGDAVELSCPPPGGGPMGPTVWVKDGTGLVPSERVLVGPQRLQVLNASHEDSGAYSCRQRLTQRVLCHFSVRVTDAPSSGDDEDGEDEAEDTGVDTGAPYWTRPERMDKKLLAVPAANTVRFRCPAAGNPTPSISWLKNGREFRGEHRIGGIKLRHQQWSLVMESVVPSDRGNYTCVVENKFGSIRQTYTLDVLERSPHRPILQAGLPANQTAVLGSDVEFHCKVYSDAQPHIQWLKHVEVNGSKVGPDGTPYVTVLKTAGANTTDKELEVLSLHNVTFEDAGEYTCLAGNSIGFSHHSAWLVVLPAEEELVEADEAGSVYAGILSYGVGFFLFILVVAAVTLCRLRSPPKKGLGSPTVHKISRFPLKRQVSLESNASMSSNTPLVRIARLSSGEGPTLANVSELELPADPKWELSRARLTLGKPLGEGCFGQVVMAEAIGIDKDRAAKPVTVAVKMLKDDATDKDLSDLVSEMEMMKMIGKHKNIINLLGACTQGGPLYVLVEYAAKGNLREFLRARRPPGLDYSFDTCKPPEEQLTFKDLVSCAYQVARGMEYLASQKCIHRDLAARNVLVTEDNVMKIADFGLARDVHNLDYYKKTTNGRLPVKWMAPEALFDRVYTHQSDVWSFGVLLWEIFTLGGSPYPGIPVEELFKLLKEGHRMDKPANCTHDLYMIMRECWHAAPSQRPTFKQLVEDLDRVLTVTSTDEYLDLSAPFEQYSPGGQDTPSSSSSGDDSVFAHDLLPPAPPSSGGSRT
Method: The inhibitor potency of the exemplified compounds was determined in an enzyme discontinuous assay that measures peptide phosphorylation using FRET measurements to detect product formation. Inhibitors were serially diluted in DMSO and a volume of 0.2 μL was transferred to the wells of a 384-well plate. A 5 μL/well volume of enzyme isoforms of FGFR (-1, -2, -3 wild-type and mutant isoforms, -4) including phosphorylated and un-phosphorylated proteins diluted in assay buffer (50 mM HEPES, 10 mM MgCl2, 1 mM EGTA, 0.01% Tween-20, 5 mM DTT, pH 7.5) was added to the plate and pre-incubated with inhibitor for 5 to 15 minutes at ambient temperature. Appropriate controls (enzyme blank and enzyme with no inhibitor) were included on the plate. The reaction was initiated by the addition of a 5 μL/well volume containing both biotinylated [sequence] peptide substrate (SEQ ID NO: 1) and ATP in assay buffer. The 10 μL/well reaction concentration of the peptide substrate was 500 nM whereas the ATP concentration was maintained near or below the ATP Km. The ATP Km values were pre-determined in a separate series of experiments. The reaction plate was incubated at 25° C. for 1 hr and the reactions were ended with the addition of 5 μL/well of quench solution (50 mM Tris, 150 mM NaCl, 0.5 mg/mL BSA, pH 7.8; 45 mM EDTA, 600 nM staurosporin, with Perkin Elmer Lance Reagents at 3.75 nM Eu-antibody PY20 and 180 nM APC-Streptavidin). The plate was allowed to equilibrate for ˜10 minutes at ambient temperature before scanning on a PheraStar plate reader (BMG Labtech) instrument.
Either GraphPad prism or XLfit was used to analyze the data. The IC50 values were derived by fitting the data to a four parameter logistic equation producing a sigmoidal dose-response curve with a variable Hill coefficient. Prism equation: Y=Bottom+(Top−Bottom)/(1+10^((Log IC50−X)*Hill slope)); XLfit equation: Y=(A+((B−A)/(1+((X/C)^D)))) where X is the logarithm of inhibitor concentration and Y is the response.

Row | Compound | IC50 [1] | IC50 (RT-112/84 cell line)
1 | CN(C)C(=O)Cn1cc(-c2cnc3ccn4c(CO)c(-c5c(Cl)cccc5Cl)nc4c3c2)cn1 [Example 19, 2-(4-(2-(2,6-Dichlorophenyl)-3-(hydroxymethyl)imidazo[2,1-f][1,6]naphthyridin-9-yl)-1H-pyrazol-1-yl)-N,N-dimethylacetamide] | 1 to 5 nM | 10 to 50 nM
2 | CC(=O)N1CCC(n2cc(-c3cnc4ccn5c(CO)c(-c6c(Cl)cccc6Cl)nc5c4c3)cn2)CC1 [Example 20, 1-(4-(4-(2-(2,6-Dichlorophenyl)-3-(hydroxymethyl)imidazo[2,1-f][1,6]naphthyridin-9-yl)-1H-pyrazol-1-yl)piperidin-1-yl)ethan-1-one] | < 1 nM | < 10 nM
3 | COCC(=O)N1CCC(n2cc(-c3cnc4ccn5c(CO)c(-c6c(C)cccc6Cl)nc5c4c3)cn2)CC1 [Example 21, 1-(4-(4-(2-(2-Chloro-6-methylphenyl)-3-(hydroxymethyl)imidazo[2,1-f][1,6]naphthyridin-9-yl)-1H-pyrazol-1-yl)piperidin-1-yl)-2-methoxyethan-1-one] | 1 to 5 nM | < 10 nM
4 | Cc1cccc(Cl)c1-c1nc2c3cc(-c4cnn(CC(C)(C)O)c4)cnc3ccn2c1CO [Example 22, 1-(4-(2-(2-Chloro-6-methylphenyl)-3-(hydroxymethyl)imidazo[2,1-f][1,6]naphthyridin-9-yl)-1H-pyrazol-1-yl)-2-methylpropan-2-ol] | 1 to 5 nM | 10 to 50 nM
5 | C[C@H](CO)n1cc(-c2cnc3ccn4c(CO)c(-c5c(Cl)cccc5Cl)nc4c3c2)cn1 [Example 24, (R)-2-(4-(2-(2,6-Dichlorophenyl)-3-(hydroxymethyl)imidazo[2,1-f][1,6]naphthyridin-9-yl)-1H-pyrazol-1-yl)propan-1-ol] | 1 to 5 nM | 10 to 50 nM
6 | OCc1c(-c2c(Cl)cccc2Cl)nc2c3cc(-c4cnn(CC5(F)CCOCC5)c4)cnc3ccn12 [Example 25, (2-(2,6-Dichlorophenyl)-9-(1-((4-fluorotetrahydro-2H-pyran-4-yl)methyl)-1H-pyrazol-4-yl)imidazo[2,1-J][1,6]naphthyridin-3-yl)methanol] | < 1 nM | < 10 nM
7 | COCC(=O)N1CC(Cn2cc(-c3cnc4ccn5c(CO)c(-c6c(Cl)cccc6Cl)nc5c4c3)cn2)C1 [Example 27, 1-(3-((4-(2-(2,6-Dichlorophenyl)-3-(hydroxymethyl)imidazo[2,1-f][1,6]naphthyridin-9-yl)-1H-pyrazol-1-yl)methyl)azetidin-1-yl)-2-methoxyethan-1-one] | 1 to 5 nM | 10 to 50 nM
8 | FC(F)c1c(-c2c(Cl)cccc2Cl)nc2c3cc(-c4cnn(C5CCOCC5)c4)cnc3ccn12 [Example 30, 2-(2,6-Dichlorophenyl)-3-(difluoromethyl)-9-(1-(tetrahydro-2H-pyran-4-yl)-1H-pyrazol-4-yl)imidazo[2,1-J][1,6]naphthyridine] | < 1 nM | < 10 nM
9 | CN1CCC(n2cc(-c3cnc4ccn5c(CCO)c(-c6c(Cl)cccc6Cl)nc5c4c3)cn2)CC1 [Example 34, 2-(2-(2,6-Dichlorophenyl)-9-(1-(1-methylpiperidin-4-yl)-1H-pyrazol-4-yl)imidazo[2,1-f][1,6]naphthyridin-3-yl)ethan-1-ol] | 1 to 5 nM | 10 to 50 nM
10 | Nc1c(-c2c(Cl)cccc2Cl)nc2c3cc(-c4cnn(C5CCOCC5)c4)cnc3ccn12 [Example 35, 2-(2,6-Dichlorophenyl)-9-(1-(tetrahydro-2H-pyran-4-yl)-1H-pyrazol-4-yl)imidazo[2,1-f][1,6]naphthyridin-3-amine] | 1 to 5 nM | 10 to 50 nM

More lines, main results first:

Row | IC50 [1] | Compound | IC50 (RT-112/84 cell line)
11 | < 1 nM | CS(=O)(=O)CCn1cc(-c2cnc3ccn4c(C(F)F)c(-c5c(Cl)cccc5Cl)nc4c3c2)cn1 [Example 28, 2-(2,6-Dichlorophenyl)-3-(difluoromethyl)-9-(1-(2-(methylsulfonyl)ethyl)-1H-pyrazol-4-yl)imidazo[2,1-f][1,6]naphthyridine] | < 10 nM
12 | < 1 nM | N#CCn1cc(-c2cnc3ccn4c(C(F)F)c(-c5c(Cl)cccc5Cl)nc4c3c2)cn1 [Example 29, 2-(4-(2-(2,6-Dichlorophenyl)-3-(difluoromethyl)imidazo[2,1-f][1,6]naphthyridin-9-yl)-1H-pyrazol-1-yl)acetonitrile] | < 10 nM
13 | < 1 nM | OCCn1cc(-c2cnc3ccn4c(C(F)F)c(-c5c(Cl)cccc5Cl)nc4c3c2)cn1 [Example 31, 2-(4-(2-(2,6-Dichlorophenyl)-3-(difluoromethyl)imidazo[2,1-f][1,6]naphthyridin-9-yl)-1H-pyrazol-1-yl)ethan-1-ol] | < 10 nM
14 | < 1 nM | CC(C#N)n1cc(-c2cnc3ccn4c(C(F)F)c(-c5c(Cl)cccc5Cl)nc4c3c2)cn1 (stereo not drawn) [Example 32, 2-(4-(2-(2,6-Dichlorophenyl)-3-(difluoromethyl)imidazo[2,1-f][1,6]naphthyridin-9-yl)-1H-pyrazol-1-yl)propanenitrile] | < 10 nM
15 | < 1 nM | CC(C)(C(N)=O)n1cc(-c2cnc3ccn4c(C(F)F)c(-c5c(Cl)cccc5Cl)nc4c3c2)cn1 [Example 33, 2-(4-(2-(2,6-Dichlorophenyl)-3-(difluoromethyl)imidazo[2,1-f][1,6]naphthyridin-9-yl)-1H-pyrazol-1-yl)-2-methylpropanamide] | < 10 nM
